Tests used:
sodium channel = assay: Guanidine influx assay (14C-guanidine radiotracer flux, in vitro); format: cell-based, human or rat; details: guanidine influx assay using a known cell line that expresses a sodium channel
Procedure, shortened: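 Radiotracer read-out: intracellular 14C-guanidine counted after washing with guanidine-supplemented low-sodium buffer. Cells expressing human or rat channels get test agent plus aconitine activator and tracer, incubated at ambient temperature. Dilution series centred on 1 μM; IC50 by sigmoidal dose-response fit.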

CYP3A4 = CYP3A4 (Homo sapiens, UniProt P08684); assay: Cytochrome P450 (CYP450) Inhibition Assay, CYP3A4 (Vivid fluorescence, BOMCC substrate); details: human, P450 Baculosomes (recombinant CYP3A4), probe BOMCC (Vivid substrate)
Sequence of CYP3A4 (P08684 whole entry): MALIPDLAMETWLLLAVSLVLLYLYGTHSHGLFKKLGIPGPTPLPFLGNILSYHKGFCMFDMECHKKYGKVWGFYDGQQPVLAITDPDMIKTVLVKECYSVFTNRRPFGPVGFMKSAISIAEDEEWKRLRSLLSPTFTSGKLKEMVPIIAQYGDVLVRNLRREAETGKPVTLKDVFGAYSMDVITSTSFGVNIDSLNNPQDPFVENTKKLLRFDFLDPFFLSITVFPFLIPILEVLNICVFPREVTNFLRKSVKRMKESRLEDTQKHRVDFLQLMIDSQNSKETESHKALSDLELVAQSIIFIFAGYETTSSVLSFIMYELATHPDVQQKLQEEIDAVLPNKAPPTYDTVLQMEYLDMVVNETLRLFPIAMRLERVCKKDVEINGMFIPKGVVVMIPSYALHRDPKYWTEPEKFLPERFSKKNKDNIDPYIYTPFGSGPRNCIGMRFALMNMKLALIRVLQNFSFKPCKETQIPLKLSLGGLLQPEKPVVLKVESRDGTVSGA

| Compound | IC50 (sodium channel; activity level class) [nM] | melting point | IC50 (sodium channel) [nM] | inhibition at 10 µM (CYP3A4) [%] |
| --- | --- | --- | --- | --- |
| O=C(O)c1ccc(CN2C(=O)C3(COc4cc5c(cc43)OCCO5)c3ccccc32)o1 (centres unmarked) [Example 11.32, 5-[(2′-oxo-2,3-dihydrospiro[furo[2,3-g][1,4]benzodioxine-8,3′-indol]-1′(2′H)-yl)methyl]furan-2-carboxylic acid] | – | 192 to 195 °C | 1000 to 10000 | – |
| O=C1Nc2cccc(-c3ccoc3)c2[C@@]12COc1cc3c(cc12)OCO3 [Example 16.66, (7R)-4′-furan-3-ylspiro[furo[2,3-f][1,3]benzodioxole-7,3′-indol]-2′(1′H)-one] | – | 229 to 231 °C | – | > 50 |
| CN1C(=O)C2(COc3cc4c(cc32)OCCO4)c2c(-c3cc[nH]n3)cccc21 (centres unmarked) [Example 16.67, 1′-methyl-4′-(1H-pyrazol-3-yl)-2,3-dihydrospiro[furo[2,3-g][1,4]benzodioxine-8,3′-indol]-2′(1′H)-one] | – | 201 to 202 °C | – | > 50 |
| CN1C(=O)C2(COc3cc4c(cc32)OCCO4)c2c(-c3ccoc3)cccc21 (centres unmarked) [Example 16.68, 4′-furan-3-yl-1′-methyl-2,3-dihydrospiro[furo[2,3-g][1,4]benzodioxine-8,3′-indol]-2′(1′H)-one] | – | 178 to 180 °C | – | > 50 |
| CN1C(=O)C2(COc3cc4c(cc32)OCCO4)c2c(-c3cn[nH]c3)cccc21 (centres unmarked) [Example 16.69, 1′-methyl-4′-(1H-pyrazol-4-yl)-2,3-dihydrospiro[furo[2,3-g][1,4]benzodioxine-8,3′-indol]-2′(1′H)-one] | – | 250 to 251 °C | – | < 50 |
| CN1C(=O)C2(COc3cc4c(cc32)OCCO4)c2c(-c3cnn(C)c3)cccc21 (centres unmarked) [Example 16.70, 1′-methyl-4′-(1-methyl-1H-pyrazol-4-yl)-2,3-dihydrospiro[furo[2,3-g][1,4]benzodioxine-8,3′-indol]-2′(1′H)-one] | – | 220 to 222 °C | – | < 50 |
| Cc1nc(-c2cccc3c2C2(COc4cc5c(cc42)OCCO5)C(=O)N3C)no1 (centres unmarked) [Example 16.74, 1′-methyl-4′-(5-methyl-1,2,4-oxadiazol-3-yl)-2,3-dihydrospiro[furo[2,3-g][1,4]benzodioxine-8,3′-indol]-2′(1′H)-one] | – | 199 to 201 °C | – | < 50 |
| CN1C(=O)C2(COc3cc4c(cc32)OCCO4)c2c(C(=O)NC3CCC3)cccc21 (centres unmarked) [Example 16.77, N-cyclobutyl-1′-methyl-2′-oxo-1′,2,2′,3-tetrahydrospiro[furo[2,3-g][1,4]benzodioxine-8,3′-indole]-4′-carboxamide] | – | 128 to 129 °C | – | < 50 |
| COc1ccc(Oc2cccc3c2C2(COc4cc5c(cc42)OCCO5)C(=O)N3C)cc1 (centres unmarked) [Example 16.84, 4′-(4-methoxyphenoxy)-1′-methyl-2,3-dihydrospiro[furo[2,3-g][1,4]benzodioxine-8,3′-indol]-2′(1′H)-one] | – | 55 to 58 °C | – | > 50 |
| CN1C(=O)C2(COc3cc4c(cc32)OCCO4)c2c(Oc3ccc(F)cc3)cccc21 (centres unmarked) [Example 16.87, 4′-(4-fluorophenoxy)-1′-methyl-2,3-dihydrospiro[furo[2,3-g][1,4]benzodioxine-8,3′-indol]-2′(1′H)-one] | – | 151 to 153 °C | – | > 50 |
| Cc1nc(-c2cccc3c2C2(COc4cc5c(cc42)OCCO5)C(=O)N3C)cs1 (centres unmarked) [Example 25, 1′-methyl-4′-(2-methyl-1,3-thiazol-4-yl)-2,3-dihydrospiro[furo[2,3-g][1,4]benzodioxine-8,3′-indol]-2′(1′H)-one] | – | 219 to 220 °C | – | > 50 |
| Nc1cccc(CN2C(=O)C3(COc4cc5c(cc43)OCCO5)c3ccccc32)n1 (centres unmarked) [Example 34, 1′-[(6-aminopyridin-2-yl)methyl]-2,3-dihydrospiro[furo[2,3-g][1,4]benzodioxine-8,3′-indol]-2′(1′H)-one] | – | 240 to 241 °C | – | > 50 |

Results, then the molecule that gave them:

| IC50 (sodium channel; activity level class) [nM] | melting point | IC50 (sodium channel) [nM] | inhibition at 10 µM (CYP3A4) [%] | Compound |
| --- | --- | --- | --- | --- |
| 100 to 1000 | 196 to 198 °C | – | – | O=C1N(C(c2ccccc2)c2ccccc2)c2cccc(F)c2C12COc1cc3c(cc12)OCCO3 (centres unmarked) [Example 2.44, 1′-(diphenylmethyl)-4′-fluoro-2,3-dihydrospiro[furo[2,3-g][1,4]benzodioxine-8,3′-indol]-2′(1′H)-one] |
| 1000 to 10000 | 132 to 134 °C | – | – | O=C1N(Cc2ccccn2)c2ccccc2C12COc1ccc3c(c12)OCCO3 (centres unmarked) [Example 4.127, 1-(pyridin-2-ylmethyl)-2,3-dihydrospiro[furo[3,2-f][1,4]benzodioxine-9,3′-indol]-2′(1′H)-one] |
| – | 230 to 231 °C | – | > 50 | O=C1Nc2cccc(-c3ccoc3)c2[C@]12COc1cc3c(cc12)OCO3 [Example 16.65, (7S)-4′-furan-3-ylspiro[furo[2,3-f][1,3]benzodioxole-7,3′-indol]-2′(1′H)-one] |
| – | 196 to 197 °C | – | < 50 | CN1C(=O)C2(COc3cc4c(cc32)OCCO4)c2c(C#N)cccc21 (centres unmarked) [Example 16.71, 1′-methyl-2′-oxo-1′,2,2′,3-tetrahydrospiro[furo[2,3-g][1,4]benzodioxine-8,3′-indole]-4′-carbonitrile] |
| – | 182 to 184 °C | – | > 50 | CN1C(=O)C2(COc3cc4c(cc32)OCO4)c2c(C3CCOC3)cccc21 (centres unmarked) [Example 16.73, 1′-methyl-4′-(tetrahydrofuran-3-yl)spiro[furo[2,3-f][1,3]benzodioxole-7,3′-indol]-2′(1′H)-one] |
| – | 228 to 230 °C | – | > 50 | Cc1noc(C)c1-c1cccc2c1C1(COc3cc4c(cc31)OCCO4)C(=O)N2C (centres unmarked) [Example 16.75, 4′-(3,5-dimethylisoxazol-4-yl)-1′-methyl-2,3-dihydrospiro[furo[2,3-g][1,4]benzodioxine-8,3′-indol]-2′(1′H)-one] |
| – | 166 to 168 °C | – | > 50 | COc1cccc(Oc2cccc3c2C2(COc4cc5c(cc42)OCCO5)C(=O)N3C)c1 (centres unmarked) [Example 16.79, 4′-(3-methoxyphenoxy)-1′-methyl-2,3-dihydrospiro[furo[2,3-g][1,4]benzodioxine-8,3′-indol]-2′(1′H)-one] |
| – | 181 to 183 °C | – | > 50 | CN1C(=O)C2(COc3cc4c(cc32)OCCO4)c2c(OCc3ccccn3)cccc21 (centres unmarked) [Example 16.85, 1′-methyl-4-(pyridine-2-ylmethoxy)-2,3-dihydrospiro[furo[2,3-g][1,4]benzodioxine-8,3′-indol]-2′(1′H)-one] |
| – | 233 to 234 °C (dec.) | – | > 50 | CN1C(=O)C2(COc3cc4c(cc32)OCCO4)c2c(-c3csc(N)n3)cccc21 (centres unmarked) [Example 26, 4′-(2-amino-1,3-thiazol-4-yl)-1′-methyl-2,3-dihydrospiro[furo[2,3-g][1,4]benzodioxine-8,3′-indol]-2′(1′H)-one] |
| – | > 250 °C | – | < 50 | CN1C(=O)C2(COc3cc4c(cc32)OCCO4)c2c(-c3cc(O)[nH]n3)cccc21 (centres unmarked) [Example 27, 4′-(5-hydroxy-1H-pyrazol-3-yl)-1′-methyl-2,3-dihydrospiro[furo[2,3-g][1,4]benzodioxine-8,3′-indol]-2′(1′H)-one] |
